Assay results taken from ChEMBL document CHEMBL1201862, “PubChem BioAssay data set” (2004).
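Where inhibition never reached the appropriate level, the endpoint shown equals the highest concentration tested. Otherwise, values were interpolated linearly from a five-concentration, 48-hour dose response in 96-well plates. Abbreviation: GI50, concentration required for 50% inhibition of growth.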 Active and inactive are the calls of the source. Rule as the data show it: active = GI50 up to about 1.1 µM and inactive = higher.

Tests used:
Test in all cases: growth of human tumour cells (NCI), 48 h
[1] = tested on: 786-0
[2] = tested on: A549
[3] = tested on: ACHN
[4] = tested on: BT-549
[5] = tested on: CAKI-1
[6] = tested on: CCRF-CEM
[7] = tested on: COLO 205
[8] = tested on: DU-145
[9] = tested on: EKVX
[10] = tested on: HCC 2998
[11] = tested on: HCT-116
[12] = tested on: HCT-15
[13] = tested on: HL-60
[14] = tested on: HOP-62
[15] = tested on: HOP-92
[16] = tested on: HT-29
[17] = tested on: Hs-578T
[18] = tested on: IGROV-1
[19] = tested on: KM12
[20] = tested on: LOX IMVI
[21] = tested on: M14
[22] = tested on: MCF7
[23] = tested on: MDA-MB-231
[24] = tested on: MDA-MB-435
[25] = tested on: MDA-N
[26] = tested on: MOLT-4
[27] = tested on: NCI-H23
[28] = tested on: NCI-H460
[29] = tested on: NCI-H522
[30] = tested on: NCI/ADR-RES
[31] = tested on: OVCAR-3
[32] = tested on: OVCAR-4
[33] = tested on: OVCAR-5
[34] = tested on: OVCAR-8
[35] = tested on: PC-3
[36] = tested on: RXF 393
[37] = tested on: SF-268
[38] = tested on: SF-295
[39] = tested on: SF-539
[40] = tested on: SK-MEL-28
[41] = tested on: SK-MEL-2
[42] = tested on: SK-MEL-5
[43] = tested on: SK-OV-3
[44] = tested on: SN12C
[45] = tested on: SNB-19
[46] = tested on: SNB-75
[47] = tested on: SW-620
[48] = tested on: TK-10
[49] = tested on: U-251
[50] = tested on: UACC-257
[51] = tested on: UACC-62
[52] = tested on: UO-31
[53] = tested on: A498
[54] = tested on: K562
[55] = tested on: Malme-3M
[56] = tested on: NCI-H226
[57] = tested on: RPMI-8226
[58] = tested on: SR

Cc1ccc(NC(=O)/C(CC2Nc3c(ccc4c3C(=O)c3ccccc3C4=O)NC2O)=N/NC(C)(C)C)cc1 (centres undefined)
GI50 [1]: 4.52 µM (inactive) | GI50 [2]: 16.1 µM (inactive) | GI50 [3]: 12.4 µM (inactive) | GI50 [4]: 22 µM (inactive) | GI50 [5]: 8.3 µM (inactive) | GI50 [6]: 1.36 µM (inactive) | GI50 [7]: 21.5 µM (inactive) | GI50 [8]: 7.36 µM (inactive) | GI50 [9]: 10 µM (inactive) | GI50 [10]: 22.6 µM (inactive) | GI50 [11]: 12.5 µM (inactive) | GI50 [12]: 5.79 µM | GI50 [13]: 3.97 µM (inactive) | GI50 [14]: 13.8 µM (inactive) | GI50 [15]: 16.8 µM (inactive) | GI50 [16]: 16.4 µM (inactive) | GI50 [17]: 9.4 µM (inactive) | GI50 [18]: 8.07 µM (inactive) | GI50 [19]: 8.85 µM (inactive) | GI50 [20]: 7.23 µM (inactive) | GI50 [21]: 18.7 µM (inactive) | GI50 [22]: 23.7 µM (inactive) | GI50 [23]: 3.42 µM (inactive) | GI50 [24]: 17.7 µM (inactive) | GI50 [25]: 14.1 µM (inactive) | GI50 [26]: 2.37 µM (inactive) | GI50 [27]: 17.7 µM (inactive) | GI50 [28]: 9.57 µM (inactive) | GI50 [29]: 15.9 µM (inactive) | GI50 [30]: 1.67 µM (inactive) | GI50 [31]: 18.7 µM (inactive) | GI50 [32]: 17.7 µM (inactive) | GI50 [33]: 26.5 µM (inactive) | GI50 [34]: 6.52 µM (inactive) | GI50 [35]: 15.8 µM (inactive) | GI50 [36]: 11.1 µM (inactive) | GI50 [37]: 10.4 µM (inactive) | GI50 [38]: 27.9 µM (inactive) | GI50 [39]: 7.59 µM (inactive) | GI50 [40]: 12.1 µM (inactive) | GI50 [41]: 18.9 µM (inactive) | GI50 [42]: 5.6 µM (inactive) | GI50 [43]: 12.8 µM (inactive) | GI50 [44]: 12.6 µM (inactive) | GI50 [45]: 28 µM (inactive) | GI50 [46]: 25.8 µM (inactive) | GI50 [47]: 9.68 µM (inactive) | GI50 [48]: 7.66 µM (inactive) | GI50 [49]: 14.1 µM (inactive) | GI50 [50]: 16.1 µM (inactive) | GI50 [51]: 11.9 µM (inactive) | GI50 [52]: 3.7 µM (inactive)

CCCCCCCCCCCCC/C=C(/COCC[N+](C)(C)C)OC(C)=O.CCCCCCCCCCCCCC/C(=C/OCC[N+](C)(C)C)OC(C)=O
GI50 [1]: 1.08 µM (active) | GI50 [53]: 2.49 µM (inactive) | GI50 [2]: 1.71 µM (inactive) | GI50 [3]: 1.65 µM (inactive) | GI50 [4]: 1.45 µM (inactive) | GI50 [5]: 1.58 µM (inactive) | GI50 [6]: 1.76 µM (inactive) | GI50 [7]: 1.48 µM (inactive) | GI50 [8]: 4.97 µM (inactive) | GI50 [9]: 3.1 µM (inactive) | GI50 [10]: 4.04 µM (inactive) | GI50 [11]: 0.643 µM (active) | GI50 [12]: 3.43 µM | GI50 [13]: 1.64 µM (inactive) | GI50 [14]: 1.65 µM (inactive) | GI50 [15]: 1.16 µM (inactive) | GI50 [16]: 0.356 µM (active) | GI50 [17]: 1.91 µM (inactive) | GI50 [18]: 1.69 µM (inactive) | GI50 [54]: 1.71 µM (inactive) | GI50 [19]: 1.46 µM (inactive) | GI50 [20]: 0.377 µM (active) | GI50 [21]: 2.5 µM (inactive) | GI50 [22]: 1.9 µM (inactive) | GI50 [23]: 1.78 µM (inactive) | GI50 [24]: 2.58 µM (inactive) | GI50 [25]: 3.07 µM (inactive) | GI50 [26]: 2.29 µM (inactive) | GI50 [55]: 5.68 µM (inactive) | GI50 [56]: 1.57 µM (inactive) | GI50 [27]: 1.9 µM (inactive) | GI50 [28]: 0.63 µM (active) | GI50 [29]: 1.87 µM (inactive) | GI50 [30]: 17.6 µM (inactive) | GI50 [31]: 1.61 µM (inactive) | GI50 [32]: 1.95 µM (inactive) | GI50 [33]: 2.44 µM (inactive) | GI50 [34]: 0.944 µM (active) | GI50 [35]: 2.08 µM (inactive) | GI50 [57]: 1.3 µM (inactive) | GI50 [36]: 0.716 µM (active) | GI50 [37]: 1.87 µM (inactive) | GI50 [38]: 0.92 µM (active) | GI50 [39]: 1.85 µM (inactive) | GI50 [40]: 6.5 µM (inactive) | GI50 [42]: 2.54 µM (inactive) | GI50 [43]: 4.63 µM (inactive) | GI50 [44]: 3.01 µM (inactive) | GI50 [45]: 1.47 µM (inactive) | GI50 [46]: 2.54 µM (inactive) | GI50 [58]: 1.57 µM (inactive) | GI50 [47]: 2.92 µM (inactive) | GI50 [48]: 1.48 µM (inactive) | GI50 [49]: 1.19 µM (inactive) | GI50 [50]: 2.99 µM (inactive) | GI50 [51]: 1.74 µM (inactive) | GI50 [52]: 14.3 µM (inactive)
